In brackets after ≈: the same amount, converted by molar mass. Entries after “also recorded” stand apart in the source; their conditions may differ. Structures can show the parent of a compound that is named as a salt. Where two headings read alike, the source gives them in different places. Values belong to the compound of their own block, whether it stands above or below them.
Legend:
[1] = Stability of aqueous solutions of combination formulation at pH 5.0; assay type: physicochemical; conditions: pH 5.0 at 25° C.
[2] = system: Elizabethkingia meningoseptica; test: MIC testing, Elizabethkingia meningoseptica; assay type: cell-based; conditions: for MIC50 / MIC90: Elizabethkingia meningoseptica
[3] = system: Stenotrophomonas maltophilia; test: MIC testing, Stenotrophomonas maltophilia; assay type: cell-based; conditions: for MIC90 / MIC50: Stenotrophomonas maltophilia
Text: Stenotrophomonas maltophilia is a Gram negative bacillus. It is an opportunistic MDR pathogen. It has been linked to infections with high morbidity and mortality in severely immunocompromised and debilitated individuals.

Pseudomonas aeruginosa [4] = test: MIC testing, Pseudomonas aeruginosa isolates non-susceptible to meropenem; assay type: cell-based; conditions: for % S@8: 507 isolates non-susceptible to meropenem; for MIC50 / MIC90: Pseudomonas aeruginosa
Pseudomonas aeruginosa [5] = test: MIC testing, Pseudomonas aeruginosa isolates non-susceptible to cefepime; assay type: cell-based; conditions: for % S@8: 554 isolates non-susceptible to cefepime; for MIC50 / MIC90: Pseudomonas aeruginosa
[6] = Solubility of Compound 1-dihydrochloride in IPA/water mixtures; assay type: physicochemical; conditions: IPA/water mixture, aqueous with cosolvent or surfactant or cyclodextrin, thermodynamic from solid
Procedure: In order to design a re-crystallization process for Compound 1-dihydrochloride salt from water as solvent and IPA as anti-solvent, the solubility of the API in these combinations were determined. Suspensions in various water/IPA mixtures were prepared and incubated for 24 hours at 5°, 25°, 40° and 50° C. Upon completion of the incubation time the solids were separated from the mother liquors by centrifugation and filtration and the concentration of Compound 1 in solution was determined by HPLC analysis. The remaining solids were analyzed by HT-XRPD.

[7] = Physical stability of Compound 1-dihydrochloride at four temperature/RH conditions; assay type: physicochemical
Procedure: A physical stability study of Compound 1-dihydrochloride (mixture of Form 1 and Form 2) was conducted. A solid sample of Compound 1-dihydrochloride was incubated under four relative humidity and temperature conditions: 5° C./ambient RH, 25° C./60% RH, 30° C./65% RH and 40° C./75% RH. At regular intervals, the compound was analyzed by HR-XRPD and TGMS. […] The water content is in line with the monohydrate nature of Compound 1-dihydrochloride Form 1. The TGMS analyses recorded for the 2 weeks and 1-month incubation is also along the 3.8% of water (1 molecule of water per molecule of API).

[8] = Polymorph and hydrate screen: physical stability of solid forms (AAC, drying); assay type: physicochemical; conditions: 40° C. and 75% RH for 2 days
Procedure: The solids obtained from the various crystallization experiments were analyzed by High Throughput XRPD (HT-XRPD). If relevant, the mother liquors were allowed to evaporate completely, and the remaining solids were analyzed by HT-XRPD. Subsequently, all solids were exposed to accelerated aging conditions for 48 hours at 40° C. and 75% RH (AAC).
From the polymorph screen, four novel diffractograms were identified in addition to the two known forms of Compound 1-dihydrochloride, Form 1 and Form 2. Form 1 was the most abundant solid form found in this polymorph screen. The novel diffractograms were designated Forms 3, 4, 5 and 6. All these forms were found with low frequency and were poorly crystalline. […] The HT-XRPD patterns of the new Forms 3, 4, 5 and 6 are shown in FIG. 12, FIG. 13, FIG. 14, and FIG. 15, respectively.
After completion of the equilibration time, the remaining solids were analyzed by HT-XRPD dry under ambient conditions and dried under vacuum. The mother liquors were analyzed by Karl Fisher titration for water content determination. […] The solutions from these experiments were evaporated under vacuum (200 mBar) and the obtained dried solids analyzed by HT-XRPD. All the solids were then exposed to 40° C. and 75% RH for two days.

Structure (SMILES): CO/N=C(\C(=O)N[C@@H]1C(=O)N2C(C(=O)[O-])=C(C[N+]3(C)CCCC3)CS[C@H]12)c1csc(N)n1 [Cefepime, cefepime]
% present, cefepime ([1]; 20 hours): 99%
MIC50 ([2]; N=10 strains): 16 µg/mL (≈ 33.3 µM)
MIC90 ([2]; N=10 strains, read-out: MIC90): 32 µg/mL (≈ 66.6 µM)
MIC Range ([2]; N=10 strains, in µg/mL): 16-32
% S [3]: 20%
MIC90 [3]: 64 µg/mL (≈ 133 µM)
MIC50 ([3]; read-out: MIC50): 32 µg/mL (≈ 66.6 µM)
% S@8 (Pseudomonas aeruginosa [4]): 30.8%
MIC Range (Pseudomonas aeruginosa [4]; 507 isolates non-susceptible to meropenem (MIC>8 μg/mL)): 1-128
MIC50 (Pseudomonas aeruginosa [4]): 32 µg/mL (≈ 66.6 µM)
MIC90 (Pseudomonas aeruginosa [4]): 256 µg/mL (≈ 533 µM)
% S@8 (Pseudomonas aeruginosa [5]): 0%
MIC50 (Pseudomonas aeruginosa [5]): 32 µg/mL (≈ 66.6 µM)
MIC90 (Pseudomonas aeruginosa [5]): 256 µg/mL (≈ 533 µM)

solubility at 24 h ([6]; 5 °C, IPA/H2O (40:60), 5° C.): 271 mg/mL
solubility at 24 h ([6]; 5 °C, IPA/H2O (50:50), 5° C.): 217 mg/mL
solubility at 24 h ([6]; 5 °C, IPA/H2O (60:40), 5° C.): 129 mg/mL
solubility at 24 h ([6]; 5 °C, IPA/H2O (70:30), 5° C.): 78.6 mg/mL
solubility at 24 h ([6]; 5 °C, IPA/H2O (80:20), 5° C.): 28 mg/mL
solubility at 24 h ([6]; 5 °C, IPA/H2O (90:10), 5° C.): 4.2 mg/mL
solubility at 24 h ([6]; 25 °C, IPA/H2O (40:60), 25° C.): 429 mg/mL
solubility at 24 h ([6]; 25 °C, IPA/H2O (50:50), 25° C.): 336 mg/mL
solubility at 24 h ([6]; 25 °C, IPA/H2O (60:40), 25° C.): 205 mg/mL
solubility at 24 h ([6]; 25 °C, IPA/H2O (70:30), 25° C.): 101 mg/mL
solubility at 24 h ([6]; 25 °C, IPA/H2O (80:20), 25° C.): 41.7 mg/mL
solubility at 24 h ([6]; 25 °C, IPA/H2O (90:10), 25° C.): 4.2 mg/mL
solubility at 24 h ([6]; 40 °C, IPA/H2O (40:60), 40° C.): 567 mg/mL
solubility at 24 h ([6]; 40 °C, IPA/H2O (50:50), 40° C.): 454 mg/mL
solubility at 24 h ([6]; 40 °C, IPA/H2O (60:40), 40° C.): 424 mg/mL
solubility at 24 h ([6]; 40 °C, IPA/H2O (70:30), 40° C.): 189 mg/mL
solubility at 24 h ([6]; 40 °C, IPA/H2O (80:20), 40° C.): 81 mg/mL
solubility at 24 h ([6]; 40 °C, IPA/H2O (90:10), 40° C.): 5.6 mg/mL
solubility at 24 h ([6]; 50 °C, IPA/H2O (40:60), 50° C.): 714 mg/mL
solubility at 24 h ([6]; 50 °C, IPA/H2O (50:50), 50° C.): 528 mg/mL
solubility at 24 h ([6]; 50 °C, IPA/H2O (60:40), 50° C.): 440 mg/mL
solubility at 24 h ([6]; 50 °C, IPA/H2O (70:30), 50° C.): 235 mg/mL
solubility at 24 h ([6]; 50 °C, IPA/H2O (80:20), 50° C.): 102 mg/mL
solubility at 24 h ([6]; 50 °C, IPA/H2O (90:10), 50° C.): 7.2 mg/mL
Solid form after three days exposure ([7]; 5° C./ambient RH, 25° C./60% RH, 30° C./65% RH and 40° C./75% RH, HR-XRPD, starting mixture of Form 1 and Form 2): full conversion to Form 1
Solid form upon incubation for extended periods ([7]; same four conditions, at least up to 1 month): No significant changes in the solid form
Structure (SMILES): NCCN[C@H]1CC[C@H](CC(=O)N[C@H]2Cc3cccc(C(=O)O)c3OB2O)CC1 [Compound 1-dihydrochloride, (R)-3-(2-(trans-4-(2-aminoethylamino)cyclohexyl)acetamido)-2-hydroxy-3,4-dihydro-2H-benzo[e][1,2]oxaborinine-8-carboxylic acid dihydrochloride]

Structure (SMILES): NCCN[C@H]1CC[C@H](CC(=O)N[C@H]2Cc3cccc(C(=O)O)c3OB2O)CC1 [Form 6]
Physical stability upon exposure to AAC [8]: physically unstable; also recorded: conversion to Form 1 was observed; also recorded: converted to Form 1

Structure (SMILES): C[C@@H](O)[C@H]1C(=O)N2C(C(=O)O)=C(S[C@@H]3CN[C@H](C(=O)N(C)C)C3)[C@H](C)[C@H]12 [Meropenem, meropenem]
% present, meropenem ([1]; 24 hours): 89%
MIC90 [2]: 128 µg/mL (≈ 334 µM)
MIC50 ([2]; N=10 strains): 64 µg/mL (≈ 167 µM)
% S@8 ([2]; N=10 strains): 0%
% S [3]: 0%
MIC50 [3]: 128 µg/mL (≈ 334 µM)
MIC90 [3]: > 128 µg/mL
% S@8 (Pseudomonas aeruginosa [4]): 0%
MIC50 (Pseudomonas aeruginosa [4]): 32 µg/mL (≈ 83.4 µM)
MIC90 (Pseudomonas aeruginosa [4]; read-out: MIC90): > 128 µg/mL
% S@8 (Pseudomonas aeruginosa [5]): 36.6%
MIC50 (Pseudomonas aeruginosa [5]): 16 µg/mL (≈ 41.7 µM)
MIC90 (Pseudomonas aeruginosa [5]; read-out: MIC90): > 128 µg/mL

— patent US12187752B2, “Solid forms and combination compositions comprising a beta-lactamase inhibitor and uses thereof” (priority 2017, dated 2025)
